According to US8486945B2, “Heterocyclic inhibitors of an Hh-signal cascade, medicinal compositions based thereon and methods for treating diseases caused by the aberrant activity of an Hh-signal system” (priority 2007, dated 2013):
pIC50: −log10 of the molar value.

Tested on: Hh-signalling cascade
Experiment: Inhibition of SHh-induced alkaline phosphatase in C3H10T1/2 cells (Hh-signalling cascade inhibition)
Type: cell-based
From the text: C3H10T1/2 Cells were used for identification of inhibitors of SHh-protein signaling cascade. SHh-protein activates C3H10T1/2 cells, that leads to their osteogenic differentiation [1) Kinto N., Iwamoto M., Enomoto-Iwamoto M., Noji S., Ohuchi H., Yoshioka H., Kataoka H., Wada Y., Yuhao G., Takahashi H. E., Yoshiki S., Yamaguchi A. Fibroblasts expressing Sonic hedgehog induce osteoblast differentiation and ectopic bone formation. FEBS Lett. 1997; 404(2-3): 319-23. 2) Spinella-Jaegle S., Rawadi G., Kawai S., Gallea S., Faucheu C., Mollat P., Courtois B., Bergaud B., Ramez V., Blanchet A. M., Adelmant G., Baron R., Roman-Roman S. Sonic hedgehog increases the commitment of pluripotent mesenchymal cells into the osteoblastic lineage and abolishes adipocytic differentiation. J. Cell Sci. 2001; 114(Pt 11): 2085-94] and, in particular, to expression enhancement of alkaline phosphatase enzyme.
The cells were cultivated in DMEM medium with 10% embryonal calfish serum in incubator at 37° C., 100% humidity and 5% CO2 content. The cells were placed in 384-well plates and left for night. On the next day the tested compounds in concentration of 10 μM were added to the cells, incubated for 30 min, then recombinant (R & D Systems, USA) SHh protein in concentration of 0.3 μg/ml was added and incubation was continued for 3 days. Cells with DMSO instead of a test compound and cells without SHh protein were used as test control. For determination of the cell alkaline phosphatase activity the cells were lysed in the buffer containing 0.2% Triton-X100, lisates were incubated together with proluminescent substrate CSPD (Applied Biosystems, USA) and the resultant luminescence was measured using reader VICTOR^2V (PerkinElmer, USA).
The ability of the compounds to inhibit Hh-signalling cascade was determined using C3H10T1/2 cells in 384-well plates as described in example 1. The compounds were added in triplicates in various concentrations, prepared by multiple dilution of starting solutions (concentration dependences of cell alkaline phosphatase inhibition induced by the addition of tested compounds are shown in FIG. 1). Activity of the compounds was characterized by their concentrations produced half maximal inhibition of stimulation of cell alkaline phosphatase SHh (IC50).

[1] = Mus musculus, C3H 10T1/2, half maximal inhibition of SHh (0.3 μg/ml) stimulation of cell alkaline phosphatase
[2] = half maximal inhibition of SHh (0.3 μg/ml) stimulation of cell alkaline phosphatase

Row | SMILES | pIC50 [1] | pIC50 [2]
1 | COc1ccc(C(=O)Nc2ccc(-c3cn4ccccc4n3)cc2)cc1 [III-1006, N-(4-(Imidazo[1,2-a]pyridin-2-yl)phenyl)-4-methoxybenzamide] | > 5.30 | 
2 | CC(=O)Nc1ccc(-c2cn3ccccc3n2)cc1 [III-1007, N-(4-(Imidazo[1,2-a]pyridin-2-yl)phenyl)acetamide] | < 4.30 | 
3 | Cc1cccn2cc(-c3ccc(NC(=O)Cc4ccccc4)cc3)nc12 [III-1013, N-[4-(8-Methylimidazo[1,2-a]pyridin-2-yl)phenyl]-2-phenylacetamide] | > 5.30 | 
4 | O=C(Nc1cccc(-c2cn3ccccc3n2)c1)c1ccc(F)cc1 [III-1015, 4-Fluoro-N-(3-(imidazo[1,2-a]pyridin-2-yl)phenyl)benzamide] | > 6.30 | 
5 | COc1ccc(C(=O)Nc2cccc(-c3cn4ccccc4n3)c2)cc1 [III-1018, N-(3-(Imidazo[1,2-a]pyridin-2-yl)phenyl)-4-methoxybenzamide] | > 6.30 | 
6 | COc1ccc(C(=O)Nc2cccc(-c3cn4c(C)cccc4n3)c2)cc1 [III-1019, 4-Methoxy-N-[3-(5-methylimidazo[1,2-a]pyridin-2-yl)phenyl]benzamide] | > 6.30 | 
7 | Cc1nc(-c2ccccc2)sc1C(=O)Nc1cccc(-c2cn3ccccc3n2)c1 [III-1030, 4-Methyl-2-phenylthiazol-5-carboxylic acid [3-(imidazo[1,2-a]pyridin-2-yl)phenyl]amide] | > 6.30 | 
8 | O=C(Nc1ccc(-c2cn3cccnc3n2)cc1)C1CCCC1 [IV-1002, Cyclopentanecarboxylic acid (4-imidazo[1,2-a]pyrimidin-2-ylphenyl)amide] | > 4.30 | 
9 | COc1ccccc1C(=O)Nc1ccc(-c2cn3cccnc3n2)cc1 [IV-1004, N-(4-(Imidazo[1,2-a]pyrimidin-2-yl)phenyl)-2-methoxybenzamide] | > 6.30 | 
10 | CCn1c(C(=O)N2CCC(C(=O)N3CCN(c4ccccc4)CC3)CC2)cc2sccc21 [V-1008, (4-Ethyl-4H-thieno[3,2-b]pyrrol-5-yl)[4-(4-phenyl-piperazine-1-carbonyl)piperidine-1-yl]methanone] | > 4.30 | 
11 | O=C(c1cc2sccc2n1Cc1ccc(Cl)cc1)N1CCC(C(=O)N2CCCC2)CC1 [V-1027, [4-(4-Chlorobenzyl)-4H-thieno[3,2-b]pyrrol-5-yl]-[4-(pyrrolidin-1-carbonyl)piperidin-1-yl]methanone] |  | > 5.30
12 | O=C(NCc1ccccn1)C1CCN(C(=O)c2cc3sccc3n2Cc2ccc(F)cc2F)CC1 [V-1030, 1-[4-(2,4-Difluorobenzyl)-4H-thieno[3,2-b]pyrrole-5-carbonyl]piperidine-4-carboxylic acid [(pyridin-2-yl)methyl]amide] | > 5.30 | 
13 | O=C(NCc1cccnc1)C1CCN(C(=O)c2cc3sccc3n2Cc2ccc(F)cc2)CC1 [V-1031] | > 5.30 | 
14 | CCN(CC)CCCNC(=O)C1CCN(C(=O)c2cc3sccc3n2Cc2ccc(F)cc2)CC1 [V-1032, 1-[4-(4-Fluorobenzyl)-4H-thieno[3,2-b]pyrrole-5-carbonyl]piperidine-4-carboxylic acid 3-(diethylamino)propylamide] | > 6.30 | 
15 | Cc1ccc(CNC(=O)C2CCN(C(=O)c3cc4sccc4n3Cc3ccc(F)cc3)CC2)cc1 [V-1033, 1-[4-(4-Fluorobenzyl)-4H-thieno[3,2-b]pyrrole-5-carbonyl]piperidine-4-carboxylic acid [(4-methylphenyl)methyl]amide] | > 6.30 | 
16 | Cc1ccc(NC(=O)C2CCN(C(=O)c3cc4sccc4n3Cc3ccc(F)cc3)CC2)c(C)c1 [V-1034, 1-[4-(4-Fluorobenzyl)-4H-thieno[3,2-b]pyrrole-5-carbonyl]piperidine-4-carboxylic acid (2,4-dimethylphenyl)amide] | > 6.30 | 
17 | Cc1ccc(NC(=O)C2CCN(C(=O)c3cc4sccc4n3Cc3ccc(F)cc3)CC2)cc1C [V-1035, 1-[4-(4-Fluorobenzyl)-4H-thieno[3,2-b]pyrrole-5-carbonyl]piperidine-4-carboxylic acid (3,4-dimethylphenyl)amide] | > 6.30 | 

Row | SMILES | pIC50 [1] | pIC50 [2]
18 | COCCNC(=O)C1CCN(C(=O)c2cc3sccc3n2Cc2ccc(F)cc2)CC1 [V-1036, 1-[4-(4-Fluorobenzyl)-4H-thieno[3,2-b]pyrrole-5-carbonyl]piperidine-4-carboxylic acid (2-methoxyethyl)amide] | > 6.30 | 
19 | O=C(NCc1ccc(F)cc1)C1CCN(C(=O)c2cc3sccc3n2Cc2ccc(F)cc2)CC1 [V-1037, 1-[4-(4-Fluorobenzyl)-4H-thieno[3,2-b]pyrrole-5-carbonyl]piperidine-4-carboxylic acid [(4-fluorophenyl)methyl]amide] | > 4.30 | 
20 | CCN1CCCC1CNC(=O)C1CCN(C(=O)c2cc3sccc3n2Cc2ccc(F)cc2)CC1 (stereo not drawn) [V-1038, 1-[4-(4-Fluorobenzyl)-4H-thieno[3,2-b]pyrrole-5-carbonyl]piperidine-4-carboxylic acid [(1-ethylpyrrolidin-2-yl)methyl]amide] | > 6.30 | 
21 | CCOCCCNC(=O)C1CCN(C(=O)c2cc3sccc3n2Cc2ccc(F)cc2)CC1 [V-1039, 1-[4-(4-Fluorobenzyl)-4H-thieno[3,2-b]pyrrole-5-carbonyl]piperidine-4-carboxylic acid (3-ethoxypropyl)amide] | > 6.30 | 
22 | COCCCNC(=O)C1CCN(C(=O)c2cc3sccc3n2Cc2ccc(F)cc2)CC1 [V-1040, 1-[4-(4-Fluorobenzyl)-4H-thieno[3,2-b]pyrrole-5-carbonyl]piperidine-4-carboxylic acid (3-methoxypropyl)amide] | > 6.30 | 
23 | O=C(NCCN1CCOCC1)C1CCN(C(=O)c2cc3sccc3n2Cc2ccc(F)cc2F)CC1 [V-1041, 1-[4-(2,4-Difluorobenzyl)-4H-thieno[3,2-b]pyrrole-5-carbonyl]piperidine-4-carboxylic acid (2-N-morpholinoethyl)amide] | > 6.30 | 
24 | O=C(NCCCN1CCCC1)C1CCN(C(=O)c2cc3sccc3n2Cc2ccc(F)cc2)CC1 [V-1042, 1-[4-(4-Fluorobenzyl)-4H-thieno[3,2-b]pyrrole-5-carbonyl]piperidine-4-carboxylic acid (3-N-pyrrolidinopropyl)amide] | > 6.30 | 
25 | O=C(c1cc2sccc2n1Cc1ccc(Cl)cc1)N1CCC(C(=O)N2CCCC2)CC1 [V-1044, 1-[4-(4-Chlorobenzyl)-4H-thieno[3,2-b]pyrrole-5-carbonyl]piperidine-4-carboxylic acid tetramethylenamide] |  | > 6.30
26 | O=C(NCc1ccccn1)C1CCN(C(=O)c2cc3sccc3n2Cc2ccc(Cl)cc2)CC1 [V-1045, 1-[4-(4-Chlorobenzyl)-4H-thieno[3,2-b]pyrrole-5-carbonyl]piperidine-4-carboxylic acid [(pyridin-2-yl)methyl]amide] | > 5.30 | 
27 | O=C(NCC1CCCO1)C1CCN(C(=O)c2cc3sccc3n2Cc2ccc(Cl)cc2)CC1 (stereo not drawn) [V-1046, 1-[4-(4-Chlorobenzyl)-4H-thieno[3,2-b]pyrrole-5-carbonyl]piperidine-4-carboxylic acid [(tetrahydrofuran-2-yl)methyl]amide] | > 5.30 | 
28 | COCCCNC(=O)C1CCN(C(=O)c2cc3sccc3n2Cc2ccc(Cl)cc2)CC1 [V-1047, 1-[4-(4-Chlorobenzyl)-4H-thieno[3,2-b]pyrrole-5-carbonyl]piperidine-4-carboxylic acid (3-methoxypropyl)amide] | > 6.30 | 
29 | CN1CCN(C(=O)C2CCN(C(=O)c3cc4sccc4n3Cc3ccc(F)cc3)CC2)CC1 [V-1048, [4-(4-Fluorobenzyl)-4H-thieno[3,2-b]pyrrol-5-yl]-[4-(4-methylpiperazine-1-carbonyl)piperidin-1-yl]methanone] | > 6.30 | 
30 | CN1CCN(C(=O)C2CCN(C(=O)c3cc4sccc4n3Cc3cccc(Cl)c3)CC2)CC1 [V-1049, [4-(3-Chlorobenzyl)-4H-thieno[3,2-b]pyrrol-5-yl]-[4-(4-methylpiperazine-1-carbonyl)piperidin-1-yl]methanone] | > 6.30 | 
31 | CN1CCN(C(=O)C2CCN(C(=O)c3cc4sccc4n3Cc3cccc(F)c3)CC2)CC1 [V-1050, [4-(3-Fluorobenzyl)-4H-thieno[3,2-b]pyrrol-5-yl]-[4-(4-methylpiperazine-1-carbonyl)piperidin-1-yl]methanone] | > 6.30 | 
32 | CN1CCN(C(=O)C2CCN(C(=O)c3cc4sccc4n3Cc3ccccc3F)CC2)CC1 [V-1051, [4-(2-Fluorobenzyl)-4H-thieno[3,2-b]pyrrol-5-yl]-[4-(4-methylpiperazine-1-carbonyl)piperidin-1-yl]methanone] | > 6.30 | 
33 | CN1CCN(C(=O)C2CCN(C(=O)c3cc4sccc4n3Cc3ccccc3Cl)CC2)CC1 [V-1052, [4-(2-Chlorobenzyl)-4H-thieno[3,2-b]pyrrol-5-yl]-[4-(4-methylpiperazine-1-carbonyl)piperidin-1-yl]methanone] | > 6.30 | 
